# According to patent US9550755B2, “Complement pathway modulators and uses thereof” (NOVARTIS AG, priority 2012, dated 2017):
# Biological target: Recombinant human factor D (Homo sapiens (Human), UniProt P00746)
# Experiment: Human Complement Factor D Assay: Method 1
# Assay type: biochemical
# Settings: recombinant human factor D 10 nM; substrate Z-Lys-thiobenzyl; fluorescence readout; read-out: IC50 (μM), Factor D inhibition using Method 1
# Description: Human Complement Factor D Assay: Method 1
# Recombinant human factor D (expressed in E. coli and purified using standard methods) at 10 nM concentration is incubated with test compound at various concentrations for 1 hour at room temperature in 0.1 M Hepes buffer, pH 7.5, containing 1 mM MgCl2, 1 M NaCl and 0.05% CHAPS. A synthetic substrate Z-Lys-thiobenzyl and 2,4-dinitrobenzenesulfonyl-fluoresceine are added to final concentrations of 200 μM and 25 μM, respectively. The increase in fluorescence is recorded at excitation of 485 nm and emission at 535 nm in a microplate spectrofluorimeter. IC50 values are calculated from percentage of inhibition of complement factor D-activity as a function of test compound concentration.
# Chain of Recombinant human factor D (P00746 26-253): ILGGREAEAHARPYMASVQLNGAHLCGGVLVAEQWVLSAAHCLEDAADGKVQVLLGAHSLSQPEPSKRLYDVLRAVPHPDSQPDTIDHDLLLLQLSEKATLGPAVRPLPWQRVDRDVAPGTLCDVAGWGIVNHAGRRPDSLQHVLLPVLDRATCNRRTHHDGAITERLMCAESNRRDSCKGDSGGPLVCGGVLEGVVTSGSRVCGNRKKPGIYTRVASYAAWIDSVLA
row,SMILES,IC50 [µM]
1,"NC(=O)c1nn(CC(=O)N2[C@@H]3C[C@@H]3C[C@H]2C(=O)Nc2ccn(CC(F)(F)F)n2)c2ccccc12 [Example 1, 1-(2-oxo-2-((1R,3S,5R)-3-(1-(2,2,2-trifluoroethyl)-1H-pyrazol-3-ylcarbamoyl)-2-azabicyclo[3.1.0]hexan-2-yl)ethyl)-1H-indazole-3-carboxamide]",0.064
2,"NC(=O)c1nn(CC(=O)N2[C@@H]3C[C@@H]3C[C@H]2C(=O)Nc2ccn(CC(F)(F)F)n2)c2cnccc12 [Example 2, 1-(2-oxo-2-((1R,3S,5R)-3-((1-(2,2,2-trifluoroethyl)-1H-pyrazol-3-yl)carbamoyl)-2-azabicyclo[3.1.0]hexan-2-yl)ethyl)-1H-pyrazolo[3,4-c]pyridine-3-carboxamide]",0.098
3,"CC(C)n1ccc(NC(=O)[C@@H]2C[C@H]3C[C@H]3N2C(=O)Cn2nc(C(N)=O)c3ccccc32)n1 [Example 4, 1-(2-((1R,3S,5R)-3-(1-isopropyl-1H-pyrazol-3-ylcarbamoyl)-2-azabicyclo[3.1.0]hexan-2-yl)-2-oxoethyl)-1H-indazole-3-carboxamide]",0.17

# More lines, now with the values ahead:
row,IC50 [µM],SMILES
1,0.032,"NC(=O)n1cc(NC(=O)N2[C@@H]3C[C@@H]3C[C@H]2C(=O)Nc2ccn(CC(F)(F)F)n2)c2ccccc21 [Example 5, (1R,3S,5R)—N2-(1-carbamoyl-1H-indol-3-yl)-N3-(1-(2,2,2-trifluoroethyl)-1H-pyrazol-3-yl)-2-azabicyclo[3.1.0]hexane-2,3-dicarboxamide]"
2,0.083,"CC(=O)c1nn(CC(=O)N2[C@@H]3C[C@@H]3C[C@H]2C(=O)Nc2ccn(CC(F)(F)F)n2)c2cnccc12 [Example 3, (1R,3S,5R)-2-(2-(3-acetyl-1H-pyrazolo[3,4-c]pyridin-1-yl)acetyl)-N-(1-(2,2,2-trifluoroethyl)-1 H-pyrazol-3-yl)-2-azabicyclo[3.1.0] hexane-3-carboxamide]"
